In patent EP4786487A1, “PEPTIDE” (Peptidream Inc, priority 2023, dated 2025):
Positions of bridges follow the written chain, without caps; N, C: chain ends. Non-standard residues stand in square brackets, D forms with d. Residues, ends and D or L forms follow the SMILES beside them. Phe(4-COOH) = N[C@@H](Cc1ccc(C(=O)O)cc1)C(=O)O; Trp(7-aza) = N[C@@H](Cc1c[nH]c2ncccc12)C(=O)O; Gly(N(CH2)3COOH) = O=C(O)CCCNCC(=O)O; NMeF = CN[C@@H](Cc1ccccc1)C(=O)O; 4Pal = N[C@@H](Cc1ccncc1)C(=O)O; NMeA = CN[C@@H](C)C(=O)O; Sar = CNCC(=O)O

Experiments:
Myostatin = molecular target: T1, Myostatin (Homo sapiens, UniProt O14793); experiment: HepG2 reporter gene assay, Evaluation Procedure (2): 2-concentrations assay, myostatin inhibition; assay type: cell-based; settings: Myostatin 10 ng/mL, HepG2; for inhibition at 0.03 µM: peptide 30nM, read-out: Myostatin Inhibition 30nM; for inhibition at 0.1 µM: peptide 100nM, read-out: Myostatin Inhibition 100nM
T1 construct: active myostatin (also called mature myostatin) is a homodimer consisting of two C-terminal growth factor domains; purchased R&D systems 788-G8/CF
T1 sequence (O14793 267-375): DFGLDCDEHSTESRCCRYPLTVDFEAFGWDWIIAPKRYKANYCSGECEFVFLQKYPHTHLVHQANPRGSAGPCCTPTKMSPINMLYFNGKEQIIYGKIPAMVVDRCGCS
Summary of the method: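 HepG2 cells (HB-8065, ATCC) carrying the transfected pGL3(CAGA)12-luc reporter plasmid were treated with myostatin (788-G8/CF, R&D systems) at a final concentration of 10 ng/mL plus peptide and incubated at 37°C, 5% CO2 for 20 to 24 hours. Luminescence was read after adding PBS mixed 1:1 with One-Glo substrate, and inhibition rate was calculated.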

GDF-11 = molecular target: T2, GDF-11 (Homo sapiens, UniProt O95390); experiment: HepG2 reporter gene assay, Evaluation Procedure (2): 2-concentrations assay, GDF-11 inhibition; assay type: cell-based; settings: GDF-11 10 ng/mL; for inhibition at 0.03 µM: HepG2, peptide 30nM, read-out: GDF11 Inhibition 30nM; for inhibition at 0.1 µM: HepG2, peptide 100nM, read-out: GDF11 Inhibition 100nM
T2 construct: purchased R&D systems 1958-GD-G8/CF
T2 sequence (O95390 299-407): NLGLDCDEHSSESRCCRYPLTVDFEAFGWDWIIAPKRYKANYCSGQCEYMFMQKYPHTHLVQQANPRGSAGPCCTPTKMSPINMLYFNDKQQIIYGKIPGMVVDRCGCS
Summary of the method: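 HepG2 cells carrying the transfected pGL3(CAGA)12-luc reporter, a pGL3 vector with luciferase placed downstream of 12 CAGA repeats, were stimulated with GDF-11 at a final 10 ng/mL together with test peptide. Blank wells received no GDF-11 and no peptide. Plates were incubated 20 to 24 hours at 37°C with 5% CO2. Luminescence from One-Glo substrate was read to calculate percent inhibition.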

| inhibition at 0.03 µM (Myostatin) | inhibition at 0.1 µM (Myostatin) | inhibition at 0.03 µM (GDF-11) | inhibition at 0.1 µM (GDF-11) | Structure (SMILES) |
| --- | --- | --- | --- | --- |
| 69% | 92% | 0% | 20% | CC[C@H](C)[C@@H]1NC(=O)[C@H](Cc2ccccc2)N(C)C(=O)[C@H](Cc2ccc(O)cc2)NC(=O)[C@H](Cc2c[nH]c3ncccc23)NC(=O)[C@H](C)NC(=O)[C@H](C)NC(=O)CSC[C@H](C(=O)NCC(=O)N[C@H](CCC(=O)O)C(=O)NCC(=O)N[C@H](CCCCN)C(=O)O)NC(=O)[C@H](Cc2ccccc2)N(C)C(=O)[C@H](C)N(C)C(=O)[C@H](CC(C)C)NC(=O)[C@H](Cc2ccccc2)N(C)C(=O)[C@H](CCCNC(=N)N)NC(=O)[C@H](Cc2ccc(C(=O)O)cc2)NC(=O)[C@H](Cc2ccccc2)NC(=O)CN(C)C1=O [Myostatin_99_v28] ({CH2CO}-AA[Trp(7-aza)]Y[NMeF]I[Sar]F[Phe(4-COOH)]R[NMeF]L[NMeA][NMeF][dC]G[dE]G[dK]-OH; thioether N-15) |
| 57% | 81% | 0% | 0% | CC[C@H](C)[C@@H]1NC(=O)[C@H](Cc2ccccc2)N(C)C(=O)[C@H](Cc2ccc(O)cc2)NC(=O)[C@H](Cc2c[nH]c3ncccc23)NC(=O)[C@H](C)NC(=O)[C@H](C)NC(=O)CSC[C@H](C(=O)NCC(=O)N[C@H](CCC(=O)O)C(=O)NCC(=O)N[C@H](CCCCN)C(=O)O)NC(=O)[C@H](Cc2ccccc2)N(C)C(=O)[C@H](C)N(C)C(=O)[C@H](CC(C)C)NC(=O)[C@H](Cc2ccccc2)N(C)C(=O)[C@H](CCCNC(=N)N)NC(=O)[C@H](Cc2ccc(C(=O)O)cc2)NC(=O)[C@H](Cc2ccncc2)NC(=O)CN(C)C1=O [Myostatin_99_v29] ({CH2CO}-AA[Trp(7-aza)]Y[NMeF]I[Sar][4Pal][Phe(4-COOH)]R[NMeF]L[NMeA][NMeF][dC]G[dE]G[dK]-OH; thioether N-15) |
| 31% | 60% | 0% | 0% | CC[C@H](C)[C@@H]1NC(=O)[C@H](Cc2ccccc2)N(C)C(=O)[C@H](Cc2ccc(O)cc2)NC(=O)[C@H](Cc2c[nH]c3ncccc23)NC(=O)[C@H](C)NC(=O)CN(CCCC(=O)O)C(=O)CSC[C@H](C(=O)NCC(=O)N[C@H](CCC(=O)O)C(=O)NCC(=O)N[C@H](CCCCN)C(=O)O)NC(=O)[C@H](Cc2ccccc2)N(C)C(=O)[C@H](C)N(C)C(=O)[C@H](CC(C)C)NC(=O)[C@H](Cc2ccccc2)N(C)C(=O)[C@H](CCCNC(=N)N)NC(=O)[C@H](Cc2ccc(C(=O)O)cc2)NC(=O)[C@H](Cc2ccccc2)NC(=O)CN(C)C1=O [Myostatin_99_v30] ({CH2CO}-[Gly(N(CH2)3COOH)]A[Trp(7-aza)]Y[NMeF]I[Sar]F[Phe(4-COOH)]R[NMeF]L[NMeA][NMeF][dC]G[dE]G[dK]-OH; thioether N-15) |
| 65% | 89% | 0% | 32% | CC[C@H](C)[C@@H]1NC(=O)[C@H](Cc2ccccc2)N(C)C(=O)[C@H](Cc2ccc(O)cc2)NC(=O)[C@H](Cc2c[nH]c3ccccc23)NC(=O)[C@H](C)NC(=O)CN(CCCC(=O)O)C(=O)CSC[C@H](C(=O)N[C@H](CO)C(=O)N[C@H](CO)C(=O)N[C@H](CO)C(=O)N[C@H](CCCCN)C(=O)O)NC(=O)[C@H](Cc2ccccc2)N(C)C(=O)[C@H](C)N(C)C(=O)[C@H](CC(C)C)NC(=O)[C@H](Cc2ccccc2)N(C)C(=O)[C@H](CCCNC(=N)N)NC(=O)[C@H](Cc2ccc(C(=O)O)cc2)NC(=O)[C@H](Cc2ccc(O)cc2)NC(=O)CN(C)C1=O [Myostatin_99_v34] ({CH2CO}-[Gly(N(CH2)3COOH)]AWY[NMeF]I[Sar]Y[Phe(4-COOH)]R[NMeF]L[NMeA][NMeF][dC][dS][dS][dS][dK]-OH; thioether N-15) |
| 95% | 100% | 13% | 36% | CC[C@H](C)[C@@H]1NC(=O)[C@H](Cc2ccccc2)N(C)C(=O)[C@H](Cc2ccc(O)cc2)NC(=O)[C@H](Cc2c[nH]c3ncccc23)NC(=O)[C@H](C)NC(=O)[C@H](C)NC(=O)CSC[C@H](C(=O)N[C@H](CO)C(=O)N[C@H](CO)C(=O)N[C@H](CO)C(=O)N[C@H](CCCCN)C(=O)O)NC(=O)[C@H](Cc2ccccc2)N(C)C(=O)[C@H](C)N(C)C(=O)[C@H](CC(C)C)NC(=O)[C@H](Cc2ccccc2)N(C)C(=O)[C@H](CCCNC(=N)N)NC(=O)[C@H](Cc2ccc(C(=O)O)cc2)NC(=O)[C@H](Cc2ccccc2)NC(=O)CN(C)C1=O [Myostatin_99_v35] ({CH2CO}-AA[Trp(7-aza)]Y[NMeF]I[Sar]F[Phe(4-COOH)]R[NMeF]L[NMeA][NMeF][dC][dS][dS][dS][dK]-OH; thioether N-15) |
| 92% | 98% | 2% | 18% | CC[C@H](C)[C@@H]1NC(=O)[C@H](Cc2ccccc2)N(C)C(=O)[C@H](Cc2ccc(O)cc2)NC(=O)[C@H](Cc2c[nH]c3ncccc23)NC(=O)[C@H](C)NC(=O)[C@H](C)NC(=O)CSC[C@H](C(=O)N[C@H](CO)C(=O)N[C@H](CO)C(=O)N[C@H](CO)C(=O)N[C@H](CCCCN)C(=O)O)NC(=O)[C@H](Cc2ccccc2)N(C)C(=O)[C@H](C)N(C)C(=O)[C@H](CC(C)C)NC(=O)[C@H](Cc2ccccc2)N(C)C(=O)[C@H](CCCNC(=N)N)NC(=O)[C@H](Cc2ccc(C(=O)O)cc2)NC(=O)[C@H](Cc2ccncc2)NC(=O)CN(C)C1=O [Myostatin_99_v36] ({CH2CO}-AA[Trp(7-aza)]Y[NMeF]I[Sar][4Pal][Phe(4-COOH)]R[NMeF]L[NMeA][NMeF][dC][dS][dS][dS][dK]-OH; thioether N-15) |
| 69% | 88% | 0% | 0% | CC[C@H](C)[C@@H]1NC(=O)[C@H](Cc2ccccc2)N(C)C(=O)[C@H](Cc2ccc(O)cc2)NC(=O)[C@H](Cc2c[nH]c3ncccc23)NC(=O)[C@H](C)NC(=O)CN(CCCC(=O)O)C(=O)CSC[C@H](C(=O)N[C@H](CO)C(=O)N[C@H](CO)C(=O)N[C@H](CO)C(=O)N[C@H](CCCCN)C(=O)O)NC(=O)[C@H](Cc2ccccc2)N(C)C(=O)[C@H](C)N(C)C(=O)[C@H](CC(C)C)NC(=O)[C@H](Cc2ccccc2)N(C)C(=O)[C@H](CCCNC(=N)N)NC(=O)[C@H](Cc2ccc(C(=O)O)cc2)NC(=O)[C@H](Cc2ccccc2)NC(=O)CN(C)C1=O [Myostatin_99_v37] ({CH2CO}-[Gly(N(CH2)3COOH)]A[Trp(7-aza)]Y[NMeF]I[Sar]F[Phe(4-COOH)]R[NMeF]L[NMeA][NMeF][dC][dS][dS][dS][dK]-OH; thioether N-15) |
| 40% | 80% | 0% | 11% | CC[C@H](C)[C@@H]1NC(=O)[C@H](Cc2ccccc2)N(C)C(=O)[C@H](Cc2ccc(O)cc2)NC(=O)[C@H](Cc2c[nH]c3ncccc23)NC(=O)[C@H](C)NC(=O)CN(CCCC(=O)O)C(=O)CSC[C@H](C(=O)N[C@H](CO)C(=O)N[C@H](CO)C(=O)N[C@H](CO)C(=O)N[C@H](CCCCN)C(=O)O)NC(=O)[C@H](Cc2ccccc2)N(C)C(=O)[C@H](C)N(C)C(=O)[C@H](CC(C)C)NC(=O)[C@H](Cc2ccccc2)N(C)C(=O)[C@H](CCCNC(=N)N)NC(=O)[C@H](Cc2ccc(C(=O)O)cc2)NC(=O)[C@H](Cc2ccncc2)NC(=O)CN(C)C1=O [Myostatin_99_v38] ({CH2CO}-[Gly(N(CH2)3COOH)]A[Trp(7-aza)]Y[NMeF]I[Sar][4Pal][Phe(4-COOH)]R[NMeF]L[NMeA][NMeF][dC][dS][dS][dS][dK]-OH; thioether N-15) |
| 39% | 79% | 0% | 11% | CC[C@H](C)[C@@H]1NC(=O)[C@H](Cc2ccccc2)N(C)C(=O)[C@H](Cc2ccc(O)cc2)NC(=O)[C@H](Cc2c[nH]c3ncccc23)NC(=O)[C@H](CCC(=O)O)NC(=O)[C@H](C)NC(=O)CSC[C@H](C(=O)N[C@H](CO)C(=O)N[C@H](CO)C(=O)N[C@H](CO)C(=O)N[C@H](CCCCN)C(=O)O)NC(=O)[C@H](Cc2ccccc2)N(C)C(=O)[C@H](C)N(C)C(=O)[C@H](CC(C)C)NC(=O)[C@H](Cc2ccccc2)N(C)C(=O)[C@H](CCCNC(=N)N)NC(=O)[C@H](Cc2ccc(C(=O)O)cc2)NC(=O)[C@H](Cc2ccccc2)NC(=O)CN(C)C1=O [Myostatin_99_v39] ({CH2CO}-AE[Trp(7-aza)]Y[NMeF]I[Sar]F[Phe(4-COOH)]R[NMeF]L[NMeA][NMeF][dC][dS][dS][dS][dK]-OH; thioether N-15) |
